Experiments:
[1] = test system: gastric acid secretion (histamine-stimulated); experiment: Gastric acid secretion inhibitory effects in dogs fitted with chronic gastric fistula tube; assay type: in vivo; settings: for Gastric acid secretion inhibitory action (%) / Duration of gastric acid secretion inhibitory action (%): dogs with chronic gastric fistula tube, histamine i.v., 1.6 mg/kg i.d.; for Gastric acid secretion inhibitory action (%): day 1 (1 h 40 min to 2 h after administration); for Duration of gastric acid secretion inhibitory action (%): day 2 (24 hours after administration); for gastric acid secretion inhibitory action and duration of gastric acid secretion inhibitory action (assessment in words): on the basis of Table 1
Experimental: Gastric Acid Secretion Inhibitory Effects in Dogs Fitted with Chronic Gastric Fistula Tube
The gastric acid secretion inhibitory and duration of gastric acid secretion inhibitory action of compounds of the examples were assessed using large dogs fitted with a chronic gastric fistula tube (body weights: approx. 14 to 19 kg). The experiment was conducted for 2 days. On the first day, gastric juices were collected every 20 minutes under conditions of continuous intravenous administration of histamine (50 or 75 μg/kg/h) for 3 hours. A compound of the examples dissolved or suspended in 0.5% methyl cellulose solution was administered via a catheter implanted in the duodenum at the rate of 0.1 ml/kg one hour after the start of histamine administration. The gastric acid secretion inhibitory action of the compound of the examples was assessed over the next two hours. On the second day (24 hours after administration of the compound of the examples), gastric juices were collected every 20 minutes under conditions of continuous intravenous administration of histamine for 2 hours followed by assessment of the duration of gastric acid secretion inhibitory action. After measuring the amount of gastric juices, 0.5 ml of gastric juice were sampled and titrated to neutrality to a pH of 7.0 with 0.04 mol/L aqueous sodium hydroxide solution to measure acid concentration. The amount of gastric acid discharged was determined by multiplying the amount of gastric juice by the acid concentration. Gastric acid secretion inhibitory action was evaluated as the rate of gastric acid secretion inhibition (%) on day 1. Gastric acid secretion inhibitory action (%) was determined according to the formula indicated below:
Gastric acid secretion inhibitory action (%)=(A−B)/A×100
[A]: amount of gastric acid discharged for 20 minutes from 40 minutes to 1 hour after the start of administration of histamine
[B]: amount of gastric acid discharged for 20 minutes from 1 hour 40 minutes to 2 hours after the start of administration of the compound of the examples.
The duration of gastric acid secretion inhibitory action was evaluated as the rate of gastric acid secretion inhibition (%) on day 2. The duration of gastric acid secretion inhibitory action (%) was determined according to the formula indicated below:
Duration of gastric acid secretion inhibitory action (%)=(C−D)/C×100
[C]: Total amount of gastric acid discharged from start of administration of histamine on day 1 to one hour later
[D]: Total amount of gastric acid discharged from start of administration of histamine on day 2 to one hour later.

H+, K+-ATPase = biological target: T1, H+, K+-ATPase (Sus scrofa, UniProt P19156); experiment: H+, K+-ATPase activity inhibitory action; assay type: biochemical; settings: hog gastric mucosa enzyme, preincubation 30 minutes at 37° C., pH 6.1
T1 construct: H^+, K^+-ATPase was prepared from a fundic gland area of fresh hog gastric mucosa; from tissue; host or cells: fundic gland area of fresh hog gastric mucosa
T1 sequence (P19156 whole entry): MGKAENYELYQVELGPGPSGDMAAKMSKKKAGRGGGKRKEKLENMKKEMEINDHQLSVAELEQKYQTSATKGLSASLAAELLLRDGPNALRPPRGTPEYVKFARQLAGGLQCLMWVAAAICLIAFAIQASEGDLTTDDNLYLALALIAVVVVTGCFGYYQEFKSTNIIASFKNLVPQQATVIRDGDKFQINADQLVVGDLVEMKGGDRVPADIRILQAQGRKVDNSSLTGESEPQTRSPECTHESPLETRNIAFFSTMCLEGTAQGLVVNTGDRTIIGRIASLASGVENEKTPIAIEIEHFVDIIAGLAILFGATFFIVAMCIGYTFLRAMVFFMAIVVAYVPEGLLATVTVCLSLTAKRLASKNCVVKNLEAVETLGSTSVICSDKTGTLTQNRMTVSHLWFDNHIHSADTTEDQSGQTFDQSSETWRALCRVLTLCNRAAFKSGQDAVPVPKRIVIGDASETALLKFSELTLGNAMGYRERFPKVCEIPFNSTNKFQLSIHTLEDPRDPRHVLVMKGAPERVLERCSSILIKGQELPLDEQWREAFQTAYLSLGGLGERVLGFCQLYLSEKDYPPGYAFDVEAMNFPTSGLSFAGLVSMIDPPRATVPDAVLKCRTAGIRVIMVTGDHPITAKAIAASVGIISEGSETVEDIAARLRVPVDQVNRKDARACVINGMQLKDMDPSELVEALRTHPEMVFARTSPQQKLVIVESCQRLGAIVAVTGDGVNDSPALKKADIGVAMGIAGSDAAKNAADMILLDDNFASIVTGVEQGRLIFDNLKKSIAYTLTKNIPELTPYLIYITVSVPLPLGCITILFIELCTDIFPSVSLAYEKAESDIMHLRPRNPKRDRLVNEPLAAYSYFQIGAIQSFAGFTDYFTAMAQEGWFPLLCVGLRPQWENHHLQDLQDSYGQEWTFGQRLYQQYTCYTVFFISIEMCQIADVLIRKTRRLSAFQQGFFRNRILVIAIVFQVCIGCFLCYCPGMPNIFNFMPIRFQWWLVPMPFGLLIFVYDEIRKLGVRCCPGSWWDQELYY
T1 sequence (P18434 whole entry partner): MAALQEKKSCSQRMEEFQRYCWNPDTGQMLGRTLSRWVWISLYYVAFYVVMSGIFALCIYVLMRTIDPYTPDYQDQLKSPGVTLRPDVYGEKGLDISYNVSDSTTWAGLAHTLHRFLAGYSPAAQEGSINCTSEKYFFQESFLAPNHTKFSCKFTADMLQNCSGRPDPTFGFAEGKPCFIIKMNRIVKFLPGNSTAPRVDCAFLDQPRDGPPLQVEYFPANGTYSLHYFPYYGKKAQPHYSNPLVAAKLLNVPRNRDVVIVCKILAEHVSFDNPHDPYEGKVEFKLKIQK
Experimental: H^+, K^+-ATPase Activity Inhibitory Action
H^+, K^+-ATPase was prepared from a fundic gland area of fresh hog gastric mucosa using a variation of the Chang's method [Biochim. Biophys. Acta 464, 313 (1977)].
(1) The sodium salt of 2-[[[4-[3-hydroxy-2-(hydroxymethyl)propoxy]-3,5-dimethylpyridin-2-yl]methyl]sulfinyl]-1H-benzimidazole (Example 15) and (2) 3-[3-hydroxy-2-(hydroxymethyl)propoxy]-2,4-dimethyl-5H-pyrido[1′,2′,4,5][1,2,4]thiadiazino[2,3-a]benzimidazolium hexafluorophosphate (Example 16) were selected for the test compounds, and each was used after dissolving in methanol.
10 μL aliquots of various concentrations of the test compounds or solvent were mixed into 200 μL of 50 μg/mL H^+, K^+-ATPase, 100 μL of 10 mmol/L Pipes-Tris (pH 6.1) and 190 μL of distilled water followed by incubating for 30 minutes at 37° C., adding 150 μL of 100 mmol/L KCl (or distilled water) and 10 μL of 100 μg/mL gramicidin, and further incubating for 10 minutes. […] The amount of inorganic phosphoric acid that was released during this 10 minute period was measured in compliance with the method of Yoda and Hokin (Biochem. Biophys. Res. Commun., 40, 880, 1970). […]
Residual enzyme activity at each concentration of test compound was determined as the amount of H^+, K^+-ATPase activity as a percentage of the H^+, K^+-ATPase activity of a control group (solvent addition). […]

SMILES | Gastric acid secretion inhibitory action (%) [1] | Duration of gastric acid secretion inhibitory action (%) [1] | gastric acid secretion inhibitory action and duration of gastric acid secretion inhibitory action (assessment in words) [1] | IC50 (H+, K+-ATPase)
Cc1c(OCCCC2COC3(CCC3)O2)ccnc1C[S+]([O-])c1nc2ccccc2[n-]1.[Na+] (stereo not shown) [Example 9, 2-[[[4-[3-(5,8-dioxaspiro[3.4]octa-6-yl)propoxy]-3-methylpyridin-2-yl]methyl]sulfinyl]-1H-benzimidazole] | 100% | 89% | satisfactory | 
Cc1c(OCCC2COC3(CCOCC3)O2)ccnc1C[S+]([O-])c1nc2ccccc2[n-]1.[Na+] (stereo not shown) [Example 13, 2-[[[3-methyl-4-[2-(1,4,8-trioxaspiro[4.5]deca-2-yl)ethoxy]pyridin-2-yl]methyl]sulfinyl]-1H-benzimidazole] | 100% | 84% | satisfactory | 
Cc1c[n+]2c(c(C)c1OCC(CO)CO)CSn1c-2nc2ccccc21 [Example 16, 3-[3-Hydroxy-2-(hydroxymethyl)propoxy]-2,4-dimethyl-5H-pyrido[1′,2′,4,5][1,2,4]thiadiazino[2,3-a]benzimidazolium hexafluorophosphate] |  |  |  | 220 nM

From patent publication US20110009624A9, “BENZIMIDAZOLE COMPOUNDS HAVING GASTRIC ACID SECRETION INHIBITORY ACTION” (priority 2006, published 2011)
